Data: PMC9906756 (2023)

Columns and labels:
Assay in all cases: luminescence titration
[1] = system: A13 (DNA, single strand) AAAAAAAAAAAAA; settings: 100 mM KCl, 10 mM potassium phosphate, pH 7, 10 μM Ru-PDC3, per base, site size 0.5, Table S2 prints 2.3±1.2 × 10^6
[2] = system: T13 (DNA, single strand) TTTTTTTTTTTTT; settings: 100 mM KCl, 10 mM potassium phosphate, pH 7, 10 μM Ru-PDC3, per base, site size 1, Table S2 prints error 0.6
[3] = system: ss17 (DNA, single strand) CCAGTTCGTAGTAACCC; settings: 100 mM KCl, 10 mM potassium phosphate, pH 7, 10 μM Ru-PDC3, per base, site size 1
[4] = system: TBA (DNA, G4) GGTTGGTGTGGTTGG; settings: 100 mM KCl, 10 mM potassium phosphate; pH 7; 10 μM Ru-PDC3; per G4 strand; site size 0.5
[5] = system: ds17 (DNA, duplex) CCAGTTCGTAGTAACCC/GGGTTACTACGAACTGG; settings: 100 mM KCl, 10 mM potassium phosphate, pH 7, 10 μM Ru-PDC3, per base pair, site size 1
[6] = system: 22AG (DNA, G4) AGGGTTAGGGTTAGGGTTAGGG; settings: 100 mM KCl, 10 mM potassium phosphate; pH 7; 10 μM Ru-PDC3; per G4 strand; site size 0.5
[7] = system: K-ras (DNA, G4) AGGGCGGTGTGGGATAGGGAA; settings: 100 mM KCl, 10 mM potassium phosphate; pH 7; 10 μM Ru-PDC3; per G4 strand; site size 0.5
[8] = system: Pu24T (DNA, G4) TGAGGGTGGTGAGGGTGGGGAAGG; settings: 100 mM KCl, 10 mM potassium phosphate; pH 7; 10 μM Ru-PDC3; per G4 strand; site size 0.5
INTER (DNA, G4) TAGGGTTA = settings: 100 mM KCl, 10 mM potassium phosphate; pH 7; 10 μM Ru-PDC3; concentration as G4 strand equivalent; site size 0.5

Q: How did the Kb [1] turn out when `C[n+]1cc(NC(=O)c2ccc3c(n2)c2nc(C(=O)Nc4cc5ccccc5[n+](C)c4)ccc2c2nc4c5cccnc5c5ncccc5c4nc32)cc2ccccc21.[Ru+2].c1cnc2c(c1)ccc1cccnc12.c1cnc2c(c1)ccc1cccnc12` was run?
A: 2.2 ± 1.3 × 10^6 M^-1

Q: And the Kb [2]?
A: 1.4 ± 0.5 × 10^6 M^-1

Q: And the Kb [3]?
A: 1.3 ± 0.4 × 10^6 M^-1

Q: And the Kb [4]?
A: 5.6 ± 1.7 × 10^6 M^-1

Q: What about the Kb [5] of the same compound?
A: 1.9 ± 0.3 × 10^6 M^-1

Q: And the Kb [6]?
A: 2.2 ± 0.7 × 10^7 M^-1

Q: And the Kb [7]?
A: 1.4 ± 0.1 × 10^7 M^-1

Q: What about the Kb [8] of the same compound?
A: 2.6 ± 0.1 × 10^6 M^-1

Q: What about the Kb (INTER (DNA, G4) TAGGGTTA) of the same compound?
A: 1.4 ± 0.2 × 10^7 M^-1
